# Reference: PubChem BioAssay AID485340 (Southern Research Specialized Biocontainment Screening …, 2010)
# Active and inactive are the calls of the source. No rule for the calls is given here.
# System: M. tuberculosis growth, meropenem IC50 shift with compound
# Experiment: confirmation, meropenem IC50 shift (AID 485340);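 also: growth read after one week of culture plus overnight Alamar Blue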
# [1] = compound alone IC50 vs Mtb, compound dose (near its own IC50) 2.35 µM
# [2] = compound dose (near its own IC50) 2.35 µM
# [3] = compound alone IC50 vs Mtb, compound dose (near its own IC50) 9.38 µM
# [4] = compound dose (near its own IC50) 9.38 µM
# [5] = compound alone IC50 vs Mtb, compound dose (near its own IC50) 4.69 µM
# [6] = compound dose (near its own IC50) 4.69 µM
# [7] = compound alone IC50 vs Mtb, compound dose (near its own IC50) 0.15 µM
# [8] = compound dose (near its own IC50) 0.15 µM
# [9] = compound alone IC50 vs Mtb, compound dose (near its own IC50) 1.18 µM
# [10] = compound dose (near its own IC50) 1.18 µM
smiles,measurement,setting,value
COc1ccc2oc(C(=O)Nc3nc4ccccc4[nH]3)c(C)c2c1,IC50,[1],1.7 µM
same,IC50,[2],3.58 µM (inactive)
Fc1ccc(-c2csc(NC(=S)Nc3ccccc3)n2)cc1,IC50,[3],7.55 µM
same,IC50,[4],2.74 µM (inactive)
COc1cc(C(=O)N/N=C/c2ccc(OC(=O)c3cccc(C)c3)cc2)ccc1O,IC50,[5],4.54 µM
same,IC50,[6],4.14 µM (inactive)
CC(C)CCN1CC(O)=C(c2nc3ccccc3[nH]2)C1=N,IC50,[5],6.68 µM
same,IC50,[6],4.06 µM (inactive)
CCCN1C(=O)S/C(=C/c2ccc(N3CCOCC3)o2)C1=O,IC50,[7],0.2 µM
same,IC50,[8],5.45 µM (inactive)
COc1ccc(Cl)cc1NC(=O)C/C(C)=N/NC(=O)CC#N,IC50,[3],7.99 µM
same,IC50,[4],2.83 µM (inactive)
COc1ccc(-c2cc(C(N)=O)nc(N3CCCCCC3)n2)cc1,IC50,[5],3.95 µM
same,IC50,[6],4.05 µM (inactive)
Cn1c(/C=N/c2nc3ccccc3[nH]2)nc2ccccc21,IC50,[7],0.2 µM
same,IC50,[8],6.15 µM (inactive)
O=C(Nc1cccc(Cl)c1N1CCOCC1)c1ccc([N+](=O)[O-])o1,IC50,[9],0.909 µM
same,IC50,[10],7.42 µM (inactive)
C/C(=N\NC(N)=S)c1ccc(-n2ccnc2)cc1,IC50,[3],6.58 µM
same,IC50,[4],3.97 µM (inactive)
CCC(C(=O)NC1C(=O)N2C(C(=O)O)=C(CSc3nnc(C)s3)CSC12)c1ccccc1 (stereo not drawn),IC50,"compound alone IC50 vs Mtb, compound dose (near its own IC50) 0.59 µM",0.587 µM
same,IC50,compound dose (near its own IC50) 0.59 µM,1.99 µM (inactive)
O=C(CCN1c2ccccc2Sc2ccccc21)Oc1ccccc1,IC50,[3],8.48 µM
same,IC50,[4],2.05 µM (inactive)
O=C(CCS(=O)(=O)c1ccc(F)cc1)Nc1nnc(-c2cccs2)o1,IC50,[1],2.94 µM
same,IC50,[2],5.51 µM (inactive)
O=C(N/N=C/c1cc([N+](=O)[O-])ccc1O)C1CC1,IC50,[5],4.14 µM
same,IC50,[6],5.6 µM (inactive)
CCOC(=O)c1c(C)n(-c2ccccc2)c2ccc(OCCN(C)C)cc12,IC50,[5],5.45 µM
same,IC50,[6],4.08 µM (inactive)
Cc1ccc(Cn2c(NC(=O)c3ccco3)nc3ccccc32)cc1,IC50,[1],2.62 µM
same,IC50,[2],4.24 µM (inactive)
C[C@H](NC(=O)c1[nH]cnc1C(=O)Nc1cccc(Cl)c1)c1ccccc1,IC50,[5],3.59 µM
same,IC50,[6],< 0.52 µM
COc1cccc(NC(=S)Nc2cc(C)cc(C)n2)c1,IC50,[5],6.41 µM
same,IC50,[6],4.07 µM (inactive)
COc1cccc(NC(=O)C2CC2)c1,IC50,[5],6.09 µM
same,IC50,[6],2.07 µM (inactive)
Cc1cc(C)c(OCC(=O)Nc2nc3ccccc3[nH]2)c(C)c1,IC50,[9],1.22 µM
same,IC50,[10],7.24 µM (inactive)
CC(C)(C)c1ccc(C(=O)Oc2ccc3c(c2)OCC3=O)cc1,IC50,[3],8.64 µM
same,IC50,[4],4.92 µM (inactive)
O=C(OC(C(=O)Nc1ccc(Cl)cc1C(F)(F)F)c1ccccc1)C1=COCCO1 (stereo not drawn),IC50,[9],1.23 µM
same,IC50,[10],7.47 µM (inactive)
C[C@H](NC(=O)c1[nH]cnc1C(=O)Nc1ccc(Cl)cc1)C(=O)OC(C)(C)C,IC50,[3],10.4 µM
same,IC50,[4],4.93 µM (inactive)
O=C(CC12CC3CC(CC(C3)C1)C2)NCc1ccc(F)cc1,IC50,[3],7.43 µM
same,IC50,[4],7.53 µM (inactive)
CCOc1ccc2nc(NC(=O)c3cnccn3)sc2c1,IC50,[5],4.07 µM
same,IC50,[6],4.08 µM (inactive)
c1ccc(Nc2ncnc3c2oc2ccccc23)cc1,IC50,[1],2 µM
same,IC50,[2],6.76 µM (inactive)
Cc1ccc(-c2nc3[nH]c(=O)cc(NC(=O)C(C)C)n3n2)cc1,IC50,[3],7.36 µM
same,IC50,[4],3.83 µM (inactive)
Cc1ccc(OCC(=O)Nc2ccc3c4c(cccc24)CC3)c(C)c1,IC50,[1],1.71 µM
same,IC50,[2],7.05 µM (inactive)
Cc1ccc(-c2[nH][nH]c(=O)c(=O)c2N=Nc2ccccc2)cc1,IC50,[5],4.12 µM
same,IC50,[6],4.07 µM (inactive)
